System: tumor cells
Test: Resistance study with 30 passages
Type: cell-based
From the text: It has been shown that the problem can be solved by encapsulation of the polymeric guanidine derivate in PEGylated liposomes, which ensures that the drug substance reaches its target in higher concentrations, e.g. the malignant tumor cells. […] The commonly known cytostatics induce such cellular resistance mechanisms requiring higher, toxic doses, which cause severe side effects.

poly-[2-(2-ethoxyethoxyethyl)guanidinium hydrochloride] [API]
reduction of activity (induction of resistance): no reduction of activity
